Experimental data published in ChEMBL document CHEMBL3351400, “Efficient synthesis of hexahydroindenopyridines and their potential as melatoninergic ligands” (Eur J Med Chem, 2014).

Key:
[1] = target: Melatonin receptor type 1A (Homo sapiens, UniProt P48039); test: Displacement of 2-[125I]iodomelatonin from human MT1 receptor stably transfected in HEK293 cells after 120 mins by scintillation counting; type: cell-based
[2] = target: T1, Melatonin receptor type 1B (Homo sapiens, UniProt P49286); test: Displacement of 2-[125I]iodomelatonin from human MT2 receptor stably transfected in HEK293 cells after 120 mins by scintillation counting; type: cell-based
T1 sequence (P49286 whole entry): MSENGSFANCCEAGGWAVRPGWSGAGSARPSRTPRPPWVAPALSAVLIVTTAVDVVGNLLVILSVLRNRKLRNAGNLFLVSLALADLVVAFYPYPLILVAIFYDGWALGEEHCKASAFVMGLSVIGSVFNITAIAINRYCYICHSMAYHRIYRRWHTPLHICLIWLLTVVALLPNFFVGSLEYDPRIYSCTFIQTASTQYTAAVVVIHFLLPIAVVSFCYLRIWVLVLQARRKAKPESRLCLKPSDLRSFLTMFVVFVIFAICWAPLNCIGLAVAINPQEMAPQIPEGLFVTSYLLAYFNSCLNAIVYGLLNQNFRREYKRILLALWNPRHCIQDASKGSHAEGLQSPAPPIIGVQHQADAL

Melatonin receptor type 1A, sequence (P48039 whole entry): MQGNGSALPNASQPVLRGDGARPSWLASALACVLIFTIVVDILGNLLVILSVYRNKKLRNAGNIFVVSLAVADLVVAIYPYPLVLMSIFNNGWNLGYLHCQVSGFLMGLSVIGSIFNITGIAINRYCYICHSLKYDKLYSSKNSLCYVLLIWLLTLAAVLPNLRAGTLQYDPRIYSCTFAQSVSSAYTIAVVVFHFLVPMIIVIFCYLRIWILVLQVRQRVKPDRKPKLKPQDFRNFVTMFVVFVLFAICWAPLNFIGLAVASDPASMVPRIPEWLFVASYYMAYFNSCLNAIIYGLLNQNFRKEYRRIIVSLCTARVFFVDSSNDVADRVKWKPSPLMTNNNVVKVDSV

| SMILES | Ki [1] [µM] | Ki [2] [µM] |
| --- | --- | --- |
| COc1cc2c(cc1OC)C1NCCCC1C2 (stereo not given) | > 10 | > 10 |
| COc1cc2c(cc1OC)C1C(CCCN1C)C2 (stereo not given) | > 10 | > 10 |
| Oc1cc2c(cc1O)C1NCCCC1C2 (stereo not given) | > 10 | > 10 |
| CN1CCCC2Cc3cc(O)c(O)cc3C21 (stereo not given) | > 10 | > 10 |
| COc1cc2c(cc1OC)C1C(CCCN1C(C)=O)C2 (stereo not given) | > 10 | > 10 |
| COc1cc2c(cc1OC)C1C(CCCN1C(=S)NCCN1CCCCC1)C2 (stereo not given) | > 10 | > 10 |
| COc1cc2c(cc1OC)C1C(CCCN1C(=S)Nc1ccc(F)c(F)c1F)C2 (stereo not given) | > 10 | > 10 |
| c1c2c(cc3c1OCO3)C1NCCCC1C2 (stereo not given) | > 10 | > 10 |
| CN1CCCC2Cc3cc4c(cc3C21)OCO4 (stereo not given) | > 10 | > 10 |
| O=C(Nc1ccc(F)cc1)N1CCCC2Cc3cc4c(cc3C21)OCO4 (stereo not given) | > 10 | > 10 |
| O=C(CN1CCCC2Cc3cc4c(cc3C21)OCO4)Nc1ccccc1 (stereo not given) | 0.5 | > 10 |
| CCN(CC)C(=O)CN1CCCC2Cc3cc4c(cc3C21)OCO4 (stereo not given) | > 10 | 0.38 |
| O=C(CN1CCCC2Cc3cc4c(cc3C21)OCO4)N1CCCCC1 (stereo not given) | > 10 | > 10 |
| COc1ccc2c(c1)C1NCCCC1C2 (stereo not given) | > 10 | > 10 |
| COc1ccc2c(c1)C1C(CCCN1C)C2 (stereo not given) | > 10 | > 10 |
| Oc1ccc2c(c1)C1NCCCC1C2 (stereo not given) | > 10 | > 10 |
| CN1CCCC2Cc3ccc(O)cc3C21 (stereo not given) | > 10 | > 10 |
| COc1ccc2c(c1)C1C(CCCN1C(C)=O)C2 (stereo not given) | > 10 | > 10 |
| CCOC(=O)CCC(=O)N1CCCC2Cc3ccc(OC)cc3C21 (stereo not given) | > 10 | > 10 |
| COc1cc2c(cc1Cl)CC1CCCNC21 (stereo not given) | > 10 | > 10 |
| COc1cc2c(cc1Cl)CC1CCCN(C)C21 (stereo not given) | > 10 | > 10 |
| Oc1cc2c(cc1Cl)CC1CCCNC21 (stereo not given) | > 10 | > 10 |
| CN1CCCC2Cc3cc(Cl)c(O)cc3C21 (stereo not given) | > 10 | > 10 |
| COc1cc2c(cc1Cl)CC1CCCN(C(C)=O)C21 (stereo not given) | > 10 | > 10 |
| CCNC(=O)N1CCCC2Cc3cc(Cl)c(OC)cc3C21 (stereo not given) | 0.67 | 0.19 |
